Like-named read-outs stand apart in the source and are kept apart here.
Legend:
HCT116 cells = experiment: HCT116 (MSI) 7 day viability, CellTiter Glo; assay type: cell-based; settings: Homo sapiens, HCT-116, 168 h, 7 days, read-out: HCT116 (MSI) Viability 7 Day Abs AC50
Procedure: (§1) Compounds were dissolved in DMSO to a concentration of 10 mM. Compounds were then serially diluted in 10 3-fold steps in DMSO using an EVO (Tecan). Plates were then spun down for 1 minute at 1,000 RPM at room temperature.
(§2) The colon carcinoma lines HCT116 (RRID: CVCL_0291) and HT29 (RRID: CVCL_0320) were obtained from ATCC. […] All cells were maintained at 37° C. with 5% CO2 incubator.
(§3) After harvesting, cells were spun down for 5 minutes at 1200 RPM. Cells were resuspended in 10 mL of growth media and counted using Countess (Thermo Fisher). Cell concentrations were adjusted to 50 cells/well for HCT116 and 500 cells/well for HT29. 50 μL of diluted cells were added to compound treated 384 well plates using a 12 channel, 300 uL electronic handheld pipette (Integra). Cell treated plates were placed in 37 C with 5% CO2 incubator for 7 days.
(§4) Afterwards, cells were removed from incubator and equilibrated to room temperature for 15 minutes. 35 uL of CellTiter Glo (Promega #G7573) reagent were added to each well using a 12 channel, 300 uL electronic handheld pipette (Integra). Plates were incubated for 20 minutes at room temperature. Luminescence quantification was performed using Envision (PerkinElmer).
(§5) For data analysis, the assay background signal was determined in wells containing medium, but no cells. Potencies were calculated by linear least squares fit to the four-parameter logistic IC50 equation. The reported IC50 values are the geometrical mean of at least 2 independent replicates.

[1] = target: Full length WRN protein (aa 2-1432) (Homo sapiens (Human), UniProt Q14191); experiment: WRN ATPase ADP-Glo biochemical assay, Assay Format B (100 μM ATP); settings: 0.25 nM WRN, 100 nM C6.18 ssDNA, 60 min preincubation
HT29 cells = experiment: HT29 (MSS) 7 day viability, CellTiter Glo; assay type: cell-based; settings: Homo sapiens, HT-29, 168 h, 7 days, read-out: HT29 (MSS) Viability 7 Day CTGAbs AC50
Procedure: as §1, §2, §3, §4, §5

[2] = read-out: ATPase ADPGlo AC50 (uM)- Assay Format B

Full length WRN protein (aa 2-1432), sequence (Q14191 2-1432): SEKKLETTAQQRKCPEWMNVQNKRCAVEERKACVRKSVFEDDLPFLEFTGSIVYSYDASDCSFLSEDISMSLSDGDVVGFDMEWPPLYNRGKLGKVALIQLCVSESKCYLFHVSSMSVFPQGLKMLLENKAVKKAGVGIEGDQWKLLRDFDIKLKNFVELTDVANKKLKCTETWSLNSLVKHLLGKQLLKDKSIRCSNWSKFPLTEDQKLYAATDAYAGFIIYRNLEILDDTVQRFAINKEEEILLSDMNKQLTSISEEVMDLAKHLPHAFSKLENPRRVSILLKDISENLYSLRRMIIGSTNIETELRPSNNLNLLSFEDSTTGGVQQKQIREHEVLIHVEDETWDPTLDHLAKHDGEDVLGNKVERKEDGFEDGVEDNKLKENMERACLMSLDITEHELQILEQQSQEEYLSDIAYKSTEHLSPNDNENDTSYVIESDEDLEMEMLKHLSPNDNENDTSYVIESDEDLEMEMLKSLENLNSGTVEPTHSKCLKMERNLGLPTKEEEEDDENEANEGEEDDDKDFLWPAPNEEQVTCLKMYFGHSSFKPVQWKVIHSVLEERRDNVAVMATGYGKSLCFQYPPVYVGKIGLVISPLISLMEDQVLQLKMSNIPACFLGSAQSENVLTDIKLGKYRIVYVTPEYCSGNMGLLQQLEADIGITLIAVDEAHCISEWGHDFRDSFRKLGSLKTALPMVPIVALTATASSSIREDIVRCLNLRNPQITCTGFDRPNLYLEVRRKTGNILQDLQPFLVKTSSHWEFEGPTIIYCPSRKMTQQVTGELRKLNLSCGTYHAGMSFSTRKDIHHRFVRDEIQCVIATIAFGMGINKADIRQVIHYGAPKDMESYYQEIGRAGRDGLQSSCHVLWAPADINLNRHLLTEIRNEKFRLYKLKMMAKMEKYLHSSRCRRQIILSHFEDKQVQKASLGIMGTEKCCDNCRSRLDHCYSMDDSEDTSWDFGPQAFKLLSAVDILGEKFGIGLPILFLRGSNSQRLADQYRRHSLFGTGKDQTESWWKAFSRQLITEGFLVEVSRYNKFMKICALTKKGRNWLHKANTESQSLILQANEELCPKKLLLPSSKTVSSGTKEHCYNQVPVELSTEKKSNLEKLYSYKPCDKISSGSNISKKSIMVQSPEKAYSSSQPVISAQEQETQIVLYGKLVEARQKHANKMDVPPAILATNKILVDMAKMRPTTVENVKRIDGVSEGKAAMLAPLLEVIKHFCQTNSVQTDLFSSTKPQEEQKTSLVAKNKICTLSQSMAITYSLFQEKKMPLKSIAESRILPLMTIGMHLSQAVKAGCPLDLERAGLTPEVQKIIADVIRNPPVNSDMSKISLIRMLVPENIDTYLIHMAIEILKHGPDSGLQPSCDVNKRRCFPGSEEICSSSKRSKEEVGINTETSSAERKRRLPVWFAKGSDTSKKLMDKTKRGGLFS

Compound	AC50 (HCT116 cells) [nM]	AC50 [1, 2] [µM]	AC50 (HT29 cells) [nM]	AC50 ([1]; ATPase ADPGlo AC50 (uM)- Assay Format B) [µM]
C=CC(=O)N1CC(OC2(COC)CC2)c2nn(-c3ccc(C4CC4)cc3)c3c2C(C1)N(C(=O)c1ccc(C(F)(F)F)nc1)CC3 (stereo not drawn) [Compound 235, 1-(2-(4-cyclopropylphenyl)-9-(1-(methoxymethyl)cyclopropoxy)-5-(6-(trifluoromethyl)nicotinoyl)-2,3,4,5,5a,6,8,9-octahydro-7H-1,2,5,7-tetraazabenzo[cd]azulen-7-yl)prop-2-en-1-one]	100 to 250	> 0.055	> 3000	
C=CC(=O)N1CCc2nn(-c3ccc(C4CC4)cc3)c3c2C(C1)N(C(=O)c1cnc(C(F)(F)F)cc1NC)CC3 (stereo not drawn) [Compound 179, 1-(2-(4-cyclopropylphenyl)-5-(4-(methylamino)-6-(trifluoromethyl)nicotinoyl)-2,3,4,5,5a,6,8,9-octahydro-7H-1,2,5,7-tetraazabenzo[cd]azulen-7-yl)prop-2-en-1-one]	100 to 250	0.015 to 0.055	> 3000	
C=CC(=O)N1CC(C)c2nn(-c3ccc(C4CC4)cc3O)c3c2C(C1)N(C(=O)c1cnc(Br)cc1N)CC3 (stereo not drawn) [Compound 190, 1-(5-(4-amino-6-bromonicotinoyl)-2-(4-cyclopropyl-2-hydroxyphenyl)-9-methyl-2,3,4,5,5a,6,8,9-octahydro-7H-1,2,5,7-tetraazabenzo[cd]azulen-7-yl)prop-2-en-1-one]	1 to 100	0.005 to 0.015	> 3000	
C=CC(=O)N1CCc2nn(-c3ccc(C4CC4)cc3O)c3c2C(C1)N(C(=O)c1cnc(SC(F)(F)F)cc1N)CC3 (stereo not drawn) [Compound 209, 1-(5-(4-amino-6-((trifluoromethyl)thio)nicotinoyl)-2-(4-cyclopropyl-2-hydroxyphenyl)-2,3,4,5,5a,6,8,9-octahydro-7H-1,2,5,7-tetraazabenzo[cd]azulen-7-yl)prop-2-en-1-one]	1 to 100	0.0015 to 0.005	> 3000	
C=CC(=O)N1CCc2nn(-c3cc(F)c(C4CC4)cc3O)c3c2C(C1)N(C(=O)c1cnc(OC(F)(F)F)c(F)c1N)CC3 (stereo not drawn) [Compound 254, 1-(5-(4-amino-5-fluoro-6-(trifluoromethoxy)nicotinoyl)-2-(4-cyclopropyl-5-fluoro-2-hydroxyphenyl)-2,3,4,5,5a,6,8,9-octahydro-7H-1,2,5,7-tetraazabenzo[cd]azulen-7-yl)prop-2-en-1-one]	1 to 100		> 3000	0.015 to 0.055
C=CC(=O)N1CCc2nn(-c3ccc(C4CC4)c(F)c3O)c3c2C(C1)N(C(=O)c1cnc(C(F)(F)F)c(F)c1N)CC3 (stereo not drawn) [Compound 218, 1-(5-(4-amino-5-fluoro-6-(trifluoromethyl)nicotinoyl)-2-(4-cyclopropyl-3-fluoro-2-hydroxyphenyl)-2,3,4,5,5a,6,8,9-octahydro-7H-1,2,5,7-tetraazabenzo[cd]azulen-7-yl)prop-2-en-1-one]	1 to 100	0.005 to 0.015	> 3000	
C=CC(=O)N1CCc2nn(-c3ccc(C4CCCC4)cc3O)c3c2C(C1)N(C(=O)c1cnc(C(F)(F)F)cc1N)CC3 (stereo not drawn) [Compound 217, 1-(5-(4-amino-6-(trifluoromethyl)nicotinoyl)-2-(4-cyclopentyl-2-hydroxyphenyl)-2,3,4,5,5a,6,8,9-octahydro-7H-1,2,5,7-tetraazabenzo[cd]azulen-7-yl)prop-2-en-1-one]	1 to 100	0.0015 to 0.005	> 3000	
C=CC(=O)N1CCc2nn(-c3ccc(C4CC4)cc3O)c3c2C(C1C)N(C(=O)c1cnc(C(F)(F)F)cc1N)CC3 (stereo not drawn) [Compound 221, 1-(5-(4-amino-6-(trifluoromethyl)nicotinoyl)-2-(4-cyclopropyl-2-hydroxyphenyl)-6-methyl-2,3,4,5,5a,6,8,9-octahydro-7H-1,2,5,7-tetraazabenzo[cd]azulen-7-yl)prop-2-en-1-one]	1 to 100	0.005 to 0.015	> 3000	
